From patent US20230295115A1, “SUBSTITUTED ISOQUINOLINYLMETHYL AMIDES, ANALOGUES THEREOF, AND METHODS USING SAME” (priority 2020, published 2023)
Like-named read-outs stand apart in the source and are kept apart here.

Test system: HBV rcDNA
Assay: HepDE19 assay with bDNA quantitation of HBV rcDNA
Assay type: cell-based, hepatitis B virus (HBV)
Procedure, shortened: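 HepDE19 cells were switched to tetracycline-free medium and exposed to compound (0.5% DMSO final) for 7 days at 37° C. rcDNA was then quantified by bDNA with an HBV-specific probe set. In parallel, viability was read as ATP content (CellTiter-Glo) after 4 days on replicate plates.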

[1] = HepDE19 cells, 7 day incubation, rcDNA measured by Quantigene 2.0 bDNA assay, top concentration 25 μM; read-out: DE-19bDNA EC50
[2] = Hepatitis B virus, HepDE19, 168 h, HepDE19 cells, 7 day incubation, rcDNA measured by Quantigene 2.0 bDNA assay, top concentration 25 μM; read-out: DE-19bDNA EC50

Row | Structure (SMILES) | EC50 [1] [nM] | also measured
1 | CC(c1c[nH]c(=O)c2cc(F)c(F)cc12)N(C)C(=O)c1cc2c(F)cccn2c1 (single isomer, unassigned) [Compound 79, N-(1-(6,7-Difluoro-1-oxo-1,2-dihydroisoquinolin-4-yl)ethyl)-8-fluoro-N-methylindolizine-2-carboxamide] | 3300 | 
2 | CC(c1c[nH]c(=O)c2cc(F)c(F)cc12)N(C)C(=O)c1cc2c([nH]1)CCC2 (single isomer, unassigned) [Compound 48, N-(1-(6,7-Difluoro-1-oxo-1,2-dihydroisoquinolin-4-yl)ethyl)-N-methyl-1,4,5,6-tetrahydro cyclopenta[b]pyrrole-2-carboxamide] | 150 | 
3 | CC(c1c[nH]c(=O)c2cc(F)c(F)cc12)N(C)C(=O)c1cc2cc(F)ccc2[nH]1 (single isomer, unassigned) [Compound 10, N-(1-(6,7-Difluoro-1-oxo-1,2-dihydroisoquinolin-4-yl)ethyl)-5-fluoro-N-methyl-1H-indole-2-carboxamide] |  | EC50 (read-out: DE-19bDNA EC50; HepDE19 cells, 7 day incubation, rcDNA measured by Quantigene 2.0 bDNA assay, top concentration 25 μM): 20 nM
4 | CC(c1cn(C)c(=O)c2cc(F)c(F)cc12)N(C)C(=O)c1ccc(C(F)(F)F)c(F)c1 (single isomer, unassigned) [Compound 166, N-(1-(6,7-difluoro-2-methyl-1-oxo-1,2-dihydroisoquinolin-4-yl)ethyl)-3-fluoro-N-methyl-4-(trifluoromethyl)benzamide] | 3320 | 
5 | C[C@H](c1c[nH]c(=O)c2ccccc12)N(C)C(=O)[C@@H]1Cc2ccccc2N1 [Compound 160, (S)-N-Methyl-N-((R)-1-(1-oxo-1,2-dihydroisoquinolin-4-yl)ethyl)indoline-2-carboxamide] |  | EC50 [2]: 390 nM
6 | CC(C)CN(C(=O)c1cc2ccccn2c1)C(C)c1c[nH]c(=O)c2cc(F)c(F)cc12 (racemic) [Compound 116, N-(1-(6,7-Difluoro-1-oxo-1,2-dihydroisoquinolin-4-yl)ethyl)-N-isobutylindolizine-2-carboxamide] |  | EC50 [2]: 80 nM
7 | CC(C)CN(C(=O)c1cc2ccccc2[nH]1)C(C)c1c[nH]c(=O)c2cc(F)c(F)cc12 (single isomer, unassigned) [Compound 3, N-(1-(6,7-Difluoro-1-oxo-1,2-dihydroisoquinolin-4-yl)ethyl)-N-isobutyl-1H-indole-2-carboxamide] | 670 | 
8 | C[C@H](c1c[nH]c(=O)c2ccccc12)N(C)C(=O)c1cc2c(F)cccc2[nH]1 [Compound 156, (R)-4-Fluoro-N-methyl-N-(1-(1-oxo-1,2-dihydroisoquinolin-4-yl)ethyl)-1H-indole-2-carboxamide] |  | EC50 [2]: 120 nM
9 | CC(c1c[nH]c(=O)c2cc(F)c(F)cc12)N(C)C(=O)c1cc2ccc(F)cc2[nH]1 (single isomer, unassigned) [Compound 12, N-(1-(6,7-Difluoro-1-oxo-1,2-dihydroisoquinolin-4-yl)ethyl)-6-fluoro-N-methyl-1H-indole-2-carboxamide] | 20 | 
10 | COc1ncc(C(C)N(C)C(=O)c2cc3c(F)cccn3c2)c2cc(F)c(F)cc12 (single isomer, unassigned) [Compound 179, N-(1-(6,7-difluoro-1-methoxyisoquinolin-4-yl)ethyl)-8-fluoro-N-methylindolizine-2-carboxamide] | 9380 | 
11 | CC(c1c[nH]c(=O)c2c(F)c(F)ccc12)N(C)C(=O)C1Cc2c(F)cc(F)cc2N1 (stereo not shown) [Compound 68, N-(1-(7,8-Difluoro-1-oxo-1,2-dihydroisoquinolin-4-yl)ethyl)-4,6-difluoro-N-methylindoline-2-carboxamide] | 200 | 
12 | CC(c1c[nH]c(=O)c2c(F)c(F)ccc12)N(C)C(=O)C1Cc2cc(F)ccc2N1 (stereo not shown) [Compound 75, N-(1-(7,8-Difluoro-1-oxo-1,2-dihydroisoquinolin-4-yl)ethyl)-5-fluoro-N-methylindoline-2-carboxamide] | 830 | 
13 | CC(c1c[nH]c(=O)c2cc(F)c(F)cc12)N(CCCO)C(=O)c1cc2ccccc2[nH]1 (single isomer, unassigned) [Compound 27, N-(1-(6,7-Difluoro-1-oxo-1,2-dihydroisoquinolin-4-yl)ethyl)-N-(3-hydroxypropyl)-1H-indole-2-carboxamide] | 2900 | 
